For data set [1] the following is noted: reported; limits its use in animal studies; cited from earlier work.
A short description of data set [2]: Liver microsomal metabolic stability, mouse. The conditions noted are these: % remaining after 60 minutes, 1 μM compound, 0.5 mg/mL protein. The class given is in vitro ADME. As to the method: (§1) (f) Microsomal Stability Assays
(§2) Liver Microsomal Metabolic Stability
(§3) Working stocks were initially diluted to a concentration of 40.0 μM in 0.1 M potassium phosphate buffer (pH 7.4) before addition to the reaction vials. CD-1 mouse (male) or pooled human liver microsomes (Corning Gentest) were utilized at a final concentration of 0.5 mg/mL (protein). Duplicate wells were used for each time point (0 and 60 minutes). Reactions were carried out at 37° C. in an orbital shaker at 175 rpm, and the final DMSO concentration was kept constant at 0.1%. The final volume for each reaction was 100 μL, which includes the addition of an NADPH-Regeneration Solution (NRS) mix. This NRS mix is comprised of glucose 6-phosphate dehydrogenase, NADP+, MgCl2, and glucose 6-phosphate. Upon completion of the 60 minute time point, reactions were terminated by the addition of 2-volumes (200 μL) of ice-cold, acetonitrile containing 0.5% formic acid and internal standard. Samples were then centrifuged at 4,000 rpm for 10 minutes to remove debris and precipitated protein. Approximately 150 μL of supernatant was subsequently transferred to a new 96 well microplate for LC/MS analysis:
(§4) Narrow-window mass extraction LC-MS analysis was performed for all samples in this study using a Waters Xevo quadrupole time-of-flight (QTof) mass spectrometer to determine relative peak areas of test compounds. The percent remaining values are calculated using the following equations: % remaining=(A)/A0×100
(§5) A is area response after incubation
(§6) A0 is area response at initial time point
Background: Liver microsomes are a subcellular fraction often used to study metabolism.

Data set [3] in a line: Liver microsomal metabolic stability, human. The class given is in vitro ADME. The conditions noted are these: % remaining after 60 minutes, 1 μM compound, 0.5 mg/mL protein. As to the method: as §1, §2, §3, §4, §5, §6
The next data set deals with Karpas422 cells. Briefly: Tumor cell growth inhibition assay. In kind it is cell-based. The conditions noted are these: Homo sapiens, KARPAS-422, 144 h, six days, ATPlite, read-out: GI Karpas EC50. As to the method: (d) Tumor Cell Growth Inhibition Assay:
Karpas422 cells were seeded into a 96-well plate at 2,000 cells/well in 150 ul medium (Alpha-MEM containing 10% FBS, […] Normocin, and […] Gentamycin, Invitrogen). A HP D300 digital dispenser was used to dose cells with DMSO or test compounds across a 10-point range of concentrations (high dose of 5 uM), and cultures were grown in a humidified 5% CO2 incubator at 37° C. After six days, plates were removed from incubator and equilibrated to room temperature. An equal volume of ATPlite assay reagent was added to each well, and samples were processed according to manufacturer's instructions (Perkin Elmer). Luminescent signal was measured using an Envision plate reader equipped with a US-Luminescence detector.
A general note: In ATP-based viability assays light output follows the ATP content of the culture.

The subject of data set [4] is BCL6 reporter construct in SuDHL4-3xBCL6-TK-Luc cells. Briefly: Cell-based BCL6 reporter luciferase assay. The conditions noted are these: 48 h, two days. As for the experimental part:
(c) Cell-Based Luciferase Assay:
A BCL6 reporter construct containing three copies of the consensus BCL6 binding site, the TK promoter, and the firefly luciferase gene was stably expressed in SuDHL4 cells after lentivirus infection and selection with Blasticidin. SuDHL4-3xBCL6-TK-Luc cells were seeded into a Viewplate 384-well assay dish at 15,000 cells/well in 25 ul medium (Alpha-MEM high glucose containing 10% FBS, 25 mM HEPES, […] GlutaMAX, 100 ug/ml Normocin, and […] Gentamycin, Invitrogen). A HP D300 digital dispenser was used to dose cells with DMSO or test compounds across a 10-point range of concentrations (high dose of 10 uM), and cultures were grown in a humidified 5% CO2 incubator at 37° C. After two days, plates were removed from incubator and equilibrated to room temperature. An equal volume of neolite reporter gene assay reagent was added to each well, and samples were processed according to manufacturer's instructions (Perkin Elmer). Luminescent signal was measured using an Envision™ plate reader equipped with a US-Luminescence detector.

The target of the next data set is BCL6 BTB domain (Homo sapiens (Human), UniProt P41182). Briefly: Surface plasmon resonance (SPR) assay. The class given is binding. The conditions noted are these: single cycle kinetic analysis, Biacore T200. As to the method: (b) Surface Plasmon Resonance (SPR) Assay
SPR studies were performed using a Biacore™ T200 instrument (GE Health Sciences Inc.). The BCL6 BTB protein used in the FP assay was biotinylated using the site specific biotinylating enzyme BirA, and then cleaved with TEV protease to produce the BCL6 BTB domain (biotin-thrombin-BCL6 amino acids 1-129; 17 kd) that was use in SPR. This protein was stably captured (1000 RU) to streptavidin coupled SA chips (BR-1005-31, GE Health Sciences Inc.) according to the manufacture's protocol. Compounds were dissolved in 100% DMSO at 10 mM and 2-fold serial dilutions were done in 100% DMSO. For SPR analysis the serially titrated compounds were diluted 1/20 into buffer (10 mM HEPES pH7.4, 150 mM NaCl, 0.05% Tween-20, 3 mM EDTA) giving a final concentration of 5% DMSO. The Biacore flow rate was set at 100 ul/min. For KD determinations, single cycle kinetic analysis was performed with an on time of 60 seconds, and an off time of 300 seconds. Curve fitting and KD calculations were done with the Biacore T200 Evaluation software (GE Health Sciences Inc).

Data set [5] has as its target BTB domain of BCL6 / SMRT BBD peptide (Homo sapiens (Human), UniProt P41182). Briefly: BCL6-BTB-SMRT peptide inhibition fluorescence polarization (FP) screen. The conditions noted are these: 1.25 uM BCL6-BTB, 20 nM Bodipy-TMR SMRT peptide probe; lower limit of assay 1 uM. The class given is binding. As for the experimental part:
(a) BCL6-BTB-SMRT Peptide Inhibition Fluorescence Polarization (FP) Screen
Compounds were dissolved in 100% DMSO at 10 mM, assayed fresh, and then stored at −20° C. for repeat studies and future work. The reaction mixture consists of 1.25 uM of the 25 kd BCL6-BTB domain (Thioredoxin-His6-STag-TEV-biotinylation-thrombin-BCL6 amino acids 1-129) plus 20 nM of the peptide probe Ac-GSLVATVKEAGRSIHEIPA (SEQ ID NO:1) with 16 amino-acids (16-mer peptide) from the SMRT BBD (1414-1429) with a Bodipy-TMR fluorescent label on the lysine. […] 20 ul of this assay mixture was added to each well of the 384 well plates with the exception of the control wells that contained no protein (for setting the minimum FP value). Compounds were directly sprayed using an HP D300 Digital Dispenser from 10 mM DMSO stocks onto black 384 well plates (greiner bio-one #781900) in a concentration range from 1 uM to 500 uM (10 points in duplicate). The assay was equilibrated for 1 hour prior to reading the FP values (Ex 540 nm/Em 580 nm) with a Perkin Elmer Envision plate reader. The results were curve fitted and IC50 values were calculated using the BioAssay software from CambridgeSoft.
In general terms: In fluorescence polarisation assays a small probe gives low polarisation when free and higher when bound to something large.

With `CNC(=O)COc1cc2cc(Nc3nc(N4C[C@H](C)C[C@H](C)C4)ncc3Cl)ccc2n(C)c1=O` [BI-3802, reference compound], the bioavailability result in data set [1] is given as “poor bioavailability”. The “Mouse Liver Microsomes (MLM, % @ 1 h)” value in data set [2] was 13%. In addition, the “Human Liver Microsomes (HLM, % @ 1 h)” value in data set [3] is recorded as 25%.

In the case of `CNC(=O)COc1cc2cc(Nc3nc(N4CC5CCC(C4)C5(F)F)ncc3Cl)ccc2n(C)c1=O` [Compound X-3], the EC50 (commonly the midpoint of the concentration-response curve) in the data set on Karpas422 cells was determined as 37.8 nM. In addition, the IC50 – broadly, the concentration that inhibits the measured activity by half – came to 643 nM in data set [4] and 1800 nM in data set [5]. The affinity on BCL6 BTB domain, expressed as Kd, was 15.7 nM. In data set [2], the “Mouse Liver Microsomes (MLM, % @ 1 h)” value turned out to be 0.5%. Besides, the “Human Liver Microsomes (HLM, % @ 1 h)” value in data set [3] is recorded as 44%.

On to `CNC(=O)COc1cc2cc(Nc3nc(N4C[C@@H](C)C(F)(F)[C@@H](C)C4)ncc3Cl)ccc2n(C)c1=O` [Ia], for which the EC50 with Karpas422 cells was 3.36 nM. The IC50 is 6.84 nM in data set [4] and 900 nM in data set [5]. For the same compound, the equilibrium dissociation constant (Kd) (commonly a measure of binding affinity in units of concentration) at BCL6 BTB domain came out at 5.33 nM. The “Mouse Liver Microsomes (MLM, % @ 1 h)” value in data set [2] is 61%. Further, in data set [3], the “Human Liver Microsomes (HLM, % @ 1 h)” value worked out at 77%.

Consider `CNC(=O)COc1cc2cc(Nc3nc(N4C[C@@H](C)O[C@@H](C)C4)ncc3Cl)ccc2n(C)c1=O` [Compound X-2], for which the concentration for a half-maximal effect (EC50) in the data set with Karpas422 cells was 30.6 nM. Moreover, the IC50 in data set [4] worked out at 91.9 nM; in data set [5], 1200 nM. At BCL6 BTB domain, this compound displayed an equilibrium dissociation constant (Kd) of 10.3 nM. In addition, the “Mouse Liver Microsomes (MLM, % @ 1 h)” value in data set [2] is on record as 70%. The “Human Liver Microsomes (HLM, % @ 1 h)” value in data set [3] is listed as 74%.

Turning to `CNC(=O)COc1cc2cc(Nc3nc(N4C[C@@H](C)N[C@@H](C)C4)ncc3Cl)ccc2n(C)c1=O` [Compound X-1, 2-((6-((5-chloro-2-((3S,5R)-3,5-dimethylpiperazin-1-yl)pyrimidin-4-yl)amino)-1-methyl-2-oxo-1,2-dihydroquinolin-3-yl)oxy)-N-methylacetamide], the EC50 in the data set with Karpas422 cells is 92.6 nM. The IC50 in data set [4] worked out at 433 nM; in data set [5], 1600 nM. On BCL6 BTB domain, this compound displayed a Kd of 5.73 nM. In addition, the “Mouse Liver Microsomes (MLM, % @ 1 h)” value in data set [2] came to 15%. Besides, in data set [3], the “Human Liver Microsomes (HLM, % @ 1 h)” value is 34%.

Source of the values: patent US11192880B2, “Quinolone compounds as inhibitors of the BCL6 BTB domain protein-protein interaction and/or as BCL6 degraders” (Ontario Institute for Cancer Research (OICR), priority 2017, dated 2021).
